For data set [1], the target named is full-length FLAG-tagged B-Raf(V600E) (Homo sapiens (Human), UniProt P15056, V600E). The experiment in a line: BRAF V600E enzyme assay (TR-FRET competitive displacement of fluorescent tracer). The class given is binding. To be noted: averaged IC50; 60 min at ambient temperature; 11-point dosing, top dose 10 μM. An excerpt:
(§1) A competitive displacement assay was configured for B-Raf that monitors the amount of a fluorescently-tagged “tracer” bound to B-Raf via TR-FRET from an anti-tag Eu-labeled antibody also bound to B-Raf.
(§2) [formula] • where: • Xmax Average Uninhibited Controls • Xmin Average Background
(§3) A 4-parameter logistic model was the fit to the POC data for each compound.

In data set [2] the target is T1, BCRP (Homo sapiens (Human), UniProt Q9UNQ0). The experiment in a line: BCRP MDCKII permeability assay: efflux ratio. As to conditions: BCRP transfected MDCKII cells; Papp(B−A)/Papp(A−B); test article 1 μM; 2 hours.
The test system of data set [3] is LLC-PK1 or MDCKII cell monolayer. The experiment in a line: MDR1 LLC-PK1 and BCRP MDCKII permeability assay: permeability coefficient (Papp). As to conditions: permeability coefficient Papp; test article 1 μM; 2 hours, 37° C.
Experimental: (§4) Both LLC-PK1 and MDR1 transfected LLC-PK1 cells were cultured and plated according to manufacturer's recommendations with the exception that the passage media contained only 2% fetal bovine serum to extend passage time out to seven days.
(§5) BCRP transfected MDCKII cells were cultured and plated according to manufacturer's recommendations. Assay conditions included with and without the BCRP-specific inhibitor, K0143, at a concentration of 0.3 μM to ascertain the contribution of BCRP to the efflux value of the test compound.
(§6) Both positive and negative controls were used to assess functionality of P-gp or BCRP efflux in the assays. […] Final organic concentration in the assay was 1%. All dosing solutions contained 10 μM lucifer yellow to monitor LLC-PK1 or MDCKII cell monolayer integrity.
(§7) For the apical to basolateral determination (A to B), 75 μL of the test article in transport buffer were added to the apical side of the individual transwells and 250 μL of basolateral media, without compound or lucifer yellow, were added to each well. For the basolateral to apical determination (B to A), 250 μL of test article in transport buffer were added to each well and 75 μL transport buffer, without compound or lucifer yellow, were added to each transwell. All tests were performed in triplicate, and each compound was tested for both apical to basolateral and basolateral to apical transport. The plates were incubated for 2 hours on a Lab-Line Instruments Titer Orbital Shaker (VWR, West Chester, Pa.) at 50 rpm and 37° C. with 5% CO2. All culture plates were removed from the incubator and 50 μL of media were removed from the apical and basolateral portion of each well and added to 150 μL of 1 μM labetalol in 2:1 acetonitrile (acetonitrile): H2O, v/v.
(§8) These values were accepted when found to be below 2% for apical to basolateral and 5% basolateral to apical flux across the MDR1-transfected LLC-PK1 or BCRP-transfected MDCKII cell monolayers. The plates were sealed and the contents of each well analyzed by LC-MS/MS. The compound concentrations were determined from the ratio of the peak areas of the compound to the internal standard (labetalol) in comparison to the dosing solution.
(§9) The LC-MS/MS system was comprised of an HTS-PAL autosampler (Leap Technologies, Carrboro, N.C.), an HP1200 HPLC (Agilent, Palo Alto, Calif.), and a MDS Sciex 4000 Q Trap system (Applied Biosystems, Foster City, Calif.). […] The total run time, including re-equilibration, for a single injection was 1.2 minutes. Mass spectrometric detection of the analytes was accomplished using the ion spray positive mode.
(§10) where Cd, V, t and C0 are the detected concentration (μM), the volume on the dosing side (mL); the incubation time (s) and the initial dosing concentration (μM), respectively. The calculations for Papp were made for each replicate and then averaged.
Data set [4] has as its target T2, P-gp (MDR1) (Homo sapiens (Human), UniProt P08183). The experiment in a line: MDR1 LLC-PK1 permeability assay: efflux ratio. As to conditions: MDR1 transfected LLC-PK1 cells; Papp(B−A)/Papp(A−B); test article 1 μM; 2 hours.
Data set [5] deals with LLC-PK1 or MDCKII cell monolayer.
Experimental: as §4, §5, §6, §7, §8, §9, §10
The subject of data set [6] is A375-luciferase intracranial tumor xenografts. Kind of data set: Intracranial A375-luciferase efficacy and survival mouse tumor model. The class given is in vivo, female nu/nu NCr mice. To be noted: for Survival (# Animals on day 90): n=10. The procedure:
Female nu/nu NCr mice from Envigo (Indianapolis, Ind.) were obtained at 5-6 weeks of age and housed in groups of 5. Following a one week minimum acclimation period, mice received orthotopic (i.c.) intracranial injections of 3.0×10^3 A375-luciferase tumor cells suspended in a volume of 10 μL 0.9% sterile Dulbecco's phosphate buffered saline (DPBS) using the top-down approach (Laursen and Belknap, 1986). Seven days post cell implant (Day 1), animals were randomized and sorted into five groups (n=10/group).
Test compounds were given at a dose volume of 10 mL/kg, and vehicles were matched for each group to control for dosing stress, i.e. all groups received twice daily (BID) dose administration by oral gavage (PO) at the relevant dose volumes and schedule shown in Table 9. Tumor growth was monitored by measuring luciferase activity twice per week. Total flux/mouse can vary by an order of magnitude on day 1 of study start (start of dosing). The total flux was normalized per mouse by assigning the first measurement of flux on […] as 100%. Body weight loss as an indicator of tumor progression was determined daily during the dosing interval and then as needed (at least once weekly). Survival was evaluated through day 90 (30 days post-dosing cessation).

Data set [7] concerns BCRP. To be noted: reported in the literature; cited from earlier work.
The target of data set [8] is T1, BCRP. To be noted: dog, 2 h, 1 µM.
The target of data set [9] is T2, P-gp (MDR1). As to conditions: pig, LLC-PK1, 2 h, 1 µM.
The target in data set [10] is N-terminally GST-tagged B-Raf(V600K) (Homo sapiens, UniProt P15056, V600K). The experiment in a line: BRAF V600K enzyme assay (TR-FRET competitive displacement of fluorescent tracer). To be noted: averaged IC50; 60 min at ambient temperature; 11-point dosing, top dose 10 μM. The class given is binding.
From the text: as §1, §2, §3

Data set [11] is described as follows: PK (free brain-to-free plasma ratio) (mouse). The class given is in vivo. As to conditions: unbound brain-to-unbound plasma concentration ratio; male CD-1 mice; oral gavage 10 mg/kg; sampling 2-24 hours. Here is the method: PK (Free Brain-to-Free Plasma Ratio) (Mouse)
The ability of representative compounds to penetrate the BBB in mice was determined by evaluating the unbound brain-to-unbound plasma (also referred to as free brain-to-free plasma) concentration ratio in male CD-1 mice.
Brain samples were stored at −20±5° C. prior to analysis. Concentrations of test compound in mouse brain homogenate were determined by liquid chromatography tandem mass spectrometry (LC-MS/MS) following protein precipitation with acetonitrile. A 12-point calibration curve, ranging from 0.5 to 10,000 ng/mL, was prepared in duplicate. A solution of 400 μg/mL of test compound in dimethyl sulfoxide (DMSO) was serially diluted (3-fold) in 100% DMSO, and then 2.5 μL of each standard solution was added to 100 μL of naïve male CD-1 mice brain homogenate. To mimic the extraction in the standard curve, 2.5 μL of DMSO was added to all test samples. Both calibration and test brain homogenate samples were spiked with 10 μL of an IS (1 μg/mL of a structural analog). Brain homogenate was generated by adding 0.75 mL of 4:1 water:MeOH to each brain sample followed by homogenization for 1 minute with bead beater tubes a 6 m/s using an MP Fast Prep-24®. Proteins were precipitated from 100 μL of brain homogenate sample by the addition of 300 μL of acetonitrile. […] A 100 μL aliquot of each supernatant was transferred via a 550 μL Personal Pipettor (Apricot Designs, Monrovia, Calif.) to 96-well plates and diluted 1:1 with HPLC grade water. The resulting plates were sealed with aluminum for LC-MS/MS analysis.
Brain-to-plasma ratios were calculated using the concentration of compound measured in the brain divided by the concentration of compound measured in the plasma. Brain-to-plasma ratios were always generated from a single animal and time point. Free brain-to-free plasma ratios were calculated by multiplying the brain-to-plasma ratio by the in vitro brain homogenate free fraction divided by the in vitro plasma free fraction using the following equation: (B/P)*(Bfu/Pfu).

Like-named read-outs stand apart in the source and are kept apart here.

T2 sequence (P08183 whole entry, species assumed): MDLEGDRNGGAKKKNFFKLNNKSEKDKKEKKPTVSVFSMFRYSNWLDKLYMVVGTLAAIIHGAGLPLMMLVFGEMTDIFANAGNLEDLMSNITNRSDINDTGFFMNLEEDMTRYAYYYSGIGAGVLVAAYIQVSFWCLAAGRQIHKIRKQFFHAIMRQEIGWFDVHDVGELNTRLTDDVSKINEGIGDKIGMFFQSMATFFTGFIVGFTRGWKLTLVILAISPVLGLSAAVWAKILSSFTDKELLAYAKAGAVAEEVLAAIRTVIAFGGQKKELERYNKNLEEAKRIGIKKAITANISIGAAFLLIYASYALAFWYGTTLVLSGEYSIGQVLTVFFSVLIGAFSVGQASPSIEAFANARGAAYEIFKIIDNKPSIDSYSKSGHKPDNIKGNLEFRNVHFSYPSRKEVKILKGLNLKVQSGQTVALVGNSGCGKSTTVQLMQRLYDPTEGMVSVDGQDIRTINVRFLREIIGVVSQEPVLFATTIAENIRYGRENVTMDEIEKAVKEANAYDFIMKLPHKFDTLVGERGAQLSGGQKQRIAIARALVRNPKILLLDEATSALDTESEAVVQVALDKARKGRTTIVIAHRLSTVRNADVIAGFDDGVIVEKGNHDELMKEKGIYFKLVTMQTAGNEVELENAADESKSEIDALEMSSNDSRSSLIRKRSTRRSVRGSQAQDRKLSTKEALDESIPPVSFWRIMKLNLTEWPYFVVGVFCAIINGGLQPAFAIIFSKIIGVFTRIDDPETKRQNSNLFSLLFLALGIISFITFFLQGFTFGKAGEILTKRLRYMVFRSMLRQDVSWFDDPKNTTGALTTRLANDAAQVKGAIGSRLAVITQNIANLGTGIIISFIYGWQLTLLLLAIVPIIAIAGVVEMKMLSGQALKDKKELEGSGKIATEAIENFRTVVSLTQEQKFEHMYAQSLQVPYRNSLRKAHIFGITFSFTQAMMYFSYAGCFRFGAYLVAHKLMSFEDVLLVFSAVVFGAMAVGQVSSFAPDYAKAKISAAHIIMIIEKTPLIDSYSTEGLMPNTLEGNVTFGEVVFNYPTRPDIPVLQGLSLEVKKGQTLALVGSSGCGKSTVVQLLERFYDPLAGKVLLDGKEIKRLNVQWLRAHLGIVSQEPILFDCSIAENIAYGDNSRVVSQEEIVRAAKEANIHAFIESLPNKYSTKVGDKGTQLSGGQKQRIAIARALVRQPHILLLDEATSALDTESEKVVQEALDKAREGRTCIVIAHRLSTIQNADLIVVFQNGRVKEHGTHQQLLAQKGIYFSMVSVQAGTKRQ
full-length FLAG-tagged B-Raf(V600E), sequence (P15056 whole entry V600E): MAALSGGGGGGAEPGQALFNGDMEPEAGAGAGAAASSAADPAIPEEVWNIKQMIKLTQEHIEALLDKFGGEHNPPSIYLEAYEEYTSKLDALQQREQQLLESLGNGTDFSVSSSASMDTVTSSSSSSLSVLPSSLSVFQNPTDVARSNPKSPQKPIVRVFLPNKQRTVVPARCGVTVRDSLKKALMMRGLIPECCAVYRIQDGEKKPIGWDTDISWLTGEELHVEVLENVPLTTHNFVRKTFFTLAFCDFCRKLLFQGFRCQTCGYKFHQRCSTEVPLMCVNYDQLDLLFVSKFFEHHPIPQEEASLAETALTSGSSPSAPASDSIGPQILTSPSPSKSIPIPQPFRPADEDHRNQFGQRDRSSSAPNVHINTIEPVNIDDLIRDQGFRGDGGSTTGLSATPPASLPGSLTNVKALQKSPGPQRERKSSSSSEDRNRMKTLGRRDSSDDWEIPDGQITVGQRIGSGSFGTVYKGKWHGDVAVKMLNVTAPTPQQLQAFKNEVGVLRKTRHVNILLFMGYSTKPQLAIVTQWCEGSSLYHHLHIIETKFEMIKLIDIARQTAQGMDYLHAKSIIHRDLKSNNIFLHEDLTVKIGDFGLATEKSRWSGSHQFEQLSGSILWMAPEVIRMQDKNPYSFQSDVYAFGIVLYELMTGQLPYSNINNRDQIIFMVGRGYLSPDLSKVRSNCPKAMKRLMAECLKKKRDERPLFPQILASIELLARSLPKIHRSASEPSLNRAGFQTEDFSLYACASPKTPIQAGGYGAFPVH
T1 sequence (Q9UNQ0 whole entry, species assumed): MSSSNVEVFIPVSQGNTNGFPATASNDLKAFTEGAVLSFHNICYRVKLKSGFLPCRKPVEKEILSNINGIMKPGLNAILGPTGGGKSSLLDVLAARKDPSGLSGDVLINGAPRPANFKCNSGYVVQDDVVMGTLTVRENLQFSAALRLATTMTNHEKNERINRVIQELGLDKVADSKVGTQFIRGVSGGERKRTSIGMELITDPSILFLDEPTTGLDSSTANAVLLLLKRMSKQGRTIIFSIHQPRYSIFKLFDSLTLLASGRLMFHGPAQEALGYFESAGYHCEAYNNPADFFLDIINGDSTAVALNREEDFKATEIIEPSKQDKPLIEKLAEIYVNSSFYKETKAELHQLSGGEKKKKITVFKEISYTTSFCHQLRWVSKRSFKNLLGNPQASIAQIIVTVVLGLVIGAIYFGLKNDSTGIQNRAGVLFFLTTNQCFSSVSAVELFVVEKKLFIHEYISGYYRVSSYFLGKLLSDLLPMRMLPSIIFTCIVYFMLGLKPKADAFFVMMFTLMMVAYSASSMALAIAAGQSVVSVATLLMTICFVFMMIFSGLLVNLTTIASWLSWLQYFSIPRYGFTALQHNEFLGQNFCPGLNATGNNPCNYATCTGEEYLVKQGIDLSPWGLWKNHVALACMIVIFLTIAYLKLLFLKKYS
N-terminally GST-tagged B-Raf(V600K), sequence (P15056 2-766 V600K limits assumed): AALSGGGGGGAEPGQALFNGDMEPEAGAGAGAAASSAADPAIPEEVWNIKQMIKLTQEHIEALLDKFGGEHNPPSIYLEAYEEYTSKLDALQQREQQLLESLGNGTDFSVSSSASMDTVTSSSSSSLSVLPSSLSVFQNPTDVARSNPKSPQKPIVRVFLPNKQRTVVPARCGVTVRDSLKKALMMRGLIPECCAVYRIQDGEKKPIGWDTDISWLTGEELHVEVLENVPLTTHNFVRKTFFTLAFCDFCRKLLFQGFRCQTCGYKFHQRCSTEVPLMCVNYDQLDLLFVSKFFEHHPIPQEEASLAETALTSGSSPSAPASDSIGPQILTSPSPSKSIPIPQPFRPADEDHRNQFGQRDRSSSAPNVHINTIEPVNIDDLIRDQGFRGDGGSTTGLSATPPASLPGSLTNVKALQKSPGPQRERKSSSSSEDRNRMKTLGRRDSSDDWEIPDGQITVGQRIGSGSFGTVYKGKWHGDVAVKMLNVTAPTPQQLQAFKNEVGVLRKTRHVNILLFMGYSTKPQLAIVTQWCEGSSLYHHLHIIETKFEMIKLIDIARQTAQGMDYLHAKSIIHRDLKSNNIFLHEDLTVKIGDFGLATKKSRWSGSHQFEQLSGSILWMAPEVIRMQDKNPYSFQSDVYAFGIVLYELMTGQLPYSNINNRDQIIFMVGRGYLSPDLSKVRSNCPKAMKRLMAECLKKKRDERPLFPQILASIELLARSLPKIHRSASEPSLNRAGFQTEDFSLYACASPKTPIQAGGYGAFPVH

For orientation: IC50 means the point on the concentration scale where inhibition reaches its midpoint. A higher IC50 goes with weaker potency in that assay. Regarding “1-cyclopropyl-N-(4-((3,5-dimethyl-4-oxo-3,4-dihydroquinazolin-6-yl)amino)-3,5-difluoropyridin-2-yl)methanesulfonamide [Example 42]”, the IC50 in data set [1] is 60.3 nM. In addition, the BCRP efflux ratio on BCRP [2] is 23.73. In addition, the Permeability in data set [3] is recorded as 18.35 *10^−6 cm/s. The MDR1 efflux ratio at P-gp (MDR1) [4] is given as 5.26.
For `CCCS(=O)(=O)Nc1cc(Cl)cc(Nc2ccc3ncn(C)c(=O)c3c2C)c1Cl` [Example 48, N-(2,5-dichloro-3-((3,5-dimethyl-4-oxo-3,4-dihydroquinazoli-6-yl)amino)phenyl)propane-1-sulfonamide], the IC50 in [1] was determined as 3 nM. In data set [5], the Permeability is recorded as 25.83 *10^−6 cm/s.
With `CCCS(=O)(=O)Nc1cccc(Nc2ccc3ncn(C)c(=O)c3c2C)c1C#N` [Example 53, N-(2-cyano-3-((3,5-dimethyl-4-oxo-3,4-dihdyroquinazolin-6-yl)amino)phenyl)propane-1-sulfonamide], the IC50 in data set [1] is 9.4 nM. For the same compound, in data set [5], the Permeability was 27.13 *10^−6 cm/s.
In [1], `CCN(C)S(=O)(=O)Nc1ccc(F)c(Nc2ccc3ncn(C)c(=O)c3c2C)c1Cl` [Example 54, N-(2-chloro-3-((3,5-dimethyl-4-oxo-3,4-dihydroquinazolin-6-yl)amino)-4-fluorophenyl)-N-ethyl-N-methylamino-1-sulfonamide] yielded a concentration for half-maximal inhibition (IC50) of 188 nM. Further, the Permeability in data set [5] is reported as 35.81 *10^−6 cm/s.
Regarding `Cc1c(Nc2c(F)ccc(NS(=O)(=O)CCCF)c2Cl)ccc2ncn(C)c(=O)c12` [Example 82, N-(2-chloro-3-((3,5-dimethyl-4-oxo-3,4-dihydroquinazolin-6-yl)amino)-4-fluorophenyl)-3-fluoropropane-1-sulfonamide], the “Survival (# Animals on day 90)” value in data set [6] (Example 82 10 mg/kg BID PO 60 days) and in data set [6] (Example 82 30 mg/kg BID PO 60 days) was 6/10 in each case. In data set [6] (both doses employed (10 and 30 mg/kg BID PO)), the “efficacy as a single agent in the model” value is recorded as “highly effective”. In data set [6] (single agent, BID for 60 consecutive days PO), the “effect on tumor growth (total bioluminescence, FIG. 15)” value is “significant effect”.
Turning to `CC(C)(C)c1nc(-c2cccc(NS(=O)(=O)c3c(F)cccc3F)c2F)c(-c2ccnc(N)n2)s1` [dabrafenib], the BCRP efflux ratio in the data set on BCRP [7] is reported as 21.0.
With `CCCS(=O)(=O)Nc1ccc(F)c(C(=O)c2c[nH]c3ncc(-c4ccc(Cl)cc4)cc23)c1F` [vemurafenib], the BCRP efflux ratio in the data set with BCRP [7] is given as 495.
Take “N-(2-chloro-3-((3,5-dimethyl-4-oxo-3,4-dihydroquinazolin-6-yl)amino)-4-fluorophenyl)-1-cyclopropylmethanesulfonamide [Example 50]”: the IC50 in data set [1] came out at 66.1 nM. Further, on BCRP [2], the BCRP efflux ratio was 1.13. Besides, the Permeability in data set [3] is on record as 21.88 *10^−6 cm/s. The MDR1 efflux ratio at P-gp (MDR1) [4] came out at 1.54.
As for “N-(2-chloro-3-((3,5-dimethyl-4-oxo-3,4-dihydroquinazolin-6-yl)amino)-4-fluorophenyl)-2-methylpropane-1-sulfonamide [Example 51]”, in data set [1], the IC50 came to 63.4 nM. Also, the BCRP efflux ratio at BCRP [2] was determined as 1.28. For the same compound, the Permeability in data set [3] was 27.16 *10^−6 cm/s. In addition, on P-gp (MDR1) [4], the MDR1 efflux ratio is listed as 1.64.
For “N-(2-chloro-3-((3,5-dimethyl-4-oxo-3,4-dihydroquinazolin-6-yl)amino)-4-fluorophenyl)ethanesulfonamide [Example 52]”, in that order: 226 nM, 1.28, 28.91 *10^−6 cm/s and 1.76.
As to “N-(3-((3,5-dimethyl-4-oxo-3,4-dihydroquinazolin-6-yl)amino)-2-fluoro-5-methylphenyl)propane-1-sulfonamide [Example 46]”, the IC50 in [1] stood at 148 nM. Also, the Permeability in [5] (2 h, 1 µM) is on record as 30.74 *10^−6 cm/s. For the same compound, on BCRP [8], the BCRP efflux ratio is listed as 1.48. In addition, on P-gp (MDR1) [9], the MDR1 efflux ratio was 1.43.
In data set [1], “N-(3-chloro-4-((3,5-dimethyl-4-oxo-3,4-dihydroquinazolin-6-yl)amino)-5-fluoropyridin-2-yl)-1-cyclopropylmethanesulfonamide [Example 47]” returned an IC50 of 41.7 nM. In addition, the BCRP efflux ratio at BCRP [2] is on record as 7.93. The Permeability in data set [3] is 25.7 *10^−6 cm/s. The MDR1 efflux ratio at P-gp (MDR1) [4] is reported as 1.84.
In [1], “N-(3-chloro-4-((3,5-dimethyl-4-oxo-3,4-dihydroquinazolin-6-yl)amino)-5-fluoropyridin-2-yl)ethanesulfonamide [Example 45]” yielded an IC50 of 137 nM. In addition, the BCRP efflux ratio on BCRP [2] is 11.29. In addition, in data set [3], the Permeability was 16.56 *10^−6 cm/s. Moreover, the MDR1 efflux ratio on P-gp (MDR1) [4] was 2.47.
With “N-(3-chloro-4-((3,5-dimethyl-4-oxo-3,4-dihydroquinazolin-6-yl)oxy)-5-fluoropyridin-2-yl)propane-1-sulfonamide [Example 63]”, the IC50 in [1] was 2.8 nM; in data set [10] it was 2.4 nM. Moreover, the Permeability in [5] (2 h, 1 µM) was 26.09 *10^−6 cm/s. On BCRP [8], the BCRP efflux ratio is 7.7. In data set [11], the “B/P ratio (free)” value is 0.34-0.4. For the same compound, the MDR1 efflux ratio at P-gp (MDR1) [9] is 1.3.
The compound “N-(4-((3,5-dimethyl-4-oxo-3,4-dihydroquinazolin-6-yl)amino)-3,5-difluoropyridin-2-yl)ethanesulfonamide [Example 43]” showed an IC50 in [1] of 260 nM. Besides, at BCRP [2], the BCRP efflux ratio is on record as 26.02. Further, the Permeability in data set [3] is given as 8.75 *10^−6 cm/s. In addition, the MDR1 efflux ratio at P-gp (MDR1) [4] came to 5.24.
Consider “N-{2-chloro-3-[(3,5-dimethyl-4-oxo-3,4-dihydroquinazolin-6-yl)oxy]-4-fluorophenyl}propane-1-sulfonamide [Example 55]”, for which the IC50 in data set [1] is 5.4 nM; in data set [10], 3.1 nM. Also, the BCRP efflux ratio at BCRP [8] is given as 0.83. For the same compound, the “B/P ratio (free)” value in [11] is reported as 0.46-0.51. Also, the MDR1 efflux ratio on P-gp (MDR1) [9] was determined as 1.1.

The values above are taken from patent publication US11414404B2, “Compounds for the treatment of BRAF-associated diseases and disorders” (Array BioPharma Inc., priority 2019, dated 2022).
